“And” between values parts separate entries of the source, which are not always exact repeats. Equal values may be shown once. Read-outs that look alike come from different tables or passages of the source.
How the values were obtained:
Assay type in all cases: cell-based
K562 leukemia cells = experiment: MTT assay, cell growth inhibition of K562 leukemia cells; details: for cytotoxicity against K562 (in words): 10, 25 and 50 μM, 72 h; for IC50: MTT, 72 h incubation, mean of three independent experiments ± SD, IC50 > 50 means inhibition <20% at 50 μM, read-out: IC50 K562
Description: (§1) All conjugated compounds prepared via click chemistry and listed in Table 1 were evaluated in vitro for their cytotoxic activity against K562 leukemia cells and the colon cancer cell line HCT116. Normal human skin fibroblast cells were chosen as a control and cisplatin served as a reference compound. The cytotoxicity was evaluated using the MTT assay (details are reported in the Materials and Methods section). In all experiments the cell growth inhibition of K562 and HCT116 was determined for each compound at concentrations of 10, 25 and 50 μM after 72 h of treatment and up to 100 μM in the case of fibroblasts.
(§2) Cell growth inhibition assays were carried out using the leukemia cell line K562 and colon carcinoma HCT116. Cell lines were obtained from ATCC (Manassas, VA, USA) and maintained in RPMI 1640, supplemented with 10% fetal bovine serum (FBS), penicillin (100 Units mL^−1), streptomycin (100 μg mL^−1) and glutamine (2 mM) (complete medium); the pH of the medium was 7.2 and the incubation was performed at 37 °C in a 5% CO2 atmosphere. Adherent cells were routinely used at 70% of confluence and passaged every 3 days by treatment with 0.05% Trypsin-EDTA (Lonza, Walkersville, MD, USA). K562 cells were routinely fed every 3 days.
(§3) The antiproliferative activity of the compounds was tested using the 3-(4,5-dimethylthiozol-2-yl)2,5-diphenyltetrazolium bromide solution (MTT) assay. K562 and HCT116 were seeded in triplicate in 96-well trays respectively at the density of 5 × 10^3 and 10^4 in 50 μL of complete medium. Stock solutions (50 mM) of each compound were made in DMSO and diluted in complete medium to give final concentrations of 50, 25 and 10 μM. Untreated cells were placed in every plate as a negative control. The cells were exposed to the compounds, in 100 μL total volume, for 72 h.

[1] = test system: Normal human skin fibroblast cells; experiment: MTT assay, cytotoxicity on normal fibroblasts (control); details: up to 100 μM; for IC50: MTT, 72 h incubation, mean of three independent experiments ± SD, IC50 > 100 means inhibition <10% at 100 μM, read-out: IC50 FIBRO
Description: as §1, §3

HCT116 colon carcinoma = experiment: MTT assay, cell growth inhibition of HCT116 colon carcinoma; details: for cytotoxicity against HCT116 (in words): 10, 25 and 50 μM, 72 h; for IC50: MTT, 72 h incubation, mean of three independent experiments ± SD, IC50 > 50 means inhibition <20% at 50 μM
Description: as §1, §2, §3

[2] = Homo sapiens, Skin fibroblast, 72 h

SMILES | cytotoxicity against K562 (in words) (K562 leukemia cells) | IC50 (K562 leukemia cells; Homo sapiens, K562, 72 h) [µM] | IC50 [1, 2] [µM] | cytotoxicity towards fibroblast cells (in words) ([1]; 72 h) | cytotoxicity against HCT116 (in words) (HCT116 colon carcinoma) | IC50 (HCT116 colon carcinoma; Homo sapiens, HCT-116, 72 h) [µM] | IC50 (HCT116 colon carcinoma) | IC50 (K562 leukemia cells) | IC50 [1] [µM]
COC(=O)CC[C@@H](C)[C@H]1CC[C@H]2[C@@H]3[C@H](O)C[C@@H]4C[C@H](N=[N+]=[N-])CC[C@]4(C)[C@H]3CC[C@]12C [3α-N3-CDC, methyl 3α-azido-7α-hydroxy-5β-cholan-24-oate] | active | 23 ± 2 | > 100 | not active | active | 31 ± 2.3 |  |  | 
CC(CCC(=O)NCCS(=O)(=O)O)[C@H]1CCC2C3C(CC[C@@]21C)[C@@]1(C)CC[C@@H](N=[N+]=[N-])CC1C[C@@H]3O (stereo partly drawn) [3α-N3-TUDCA, (3α-Azido-7β-hydroxy-5β-cholan-24-oyl)-2-aminoethanesulfonic Acid] | not be cytotoxic | > 50 | > 100 | not be cytotoxic | not be cytotoxic | > 50 |  |  | 
COC(=O)CC[C@@H](C)[C@H]1CC[C@H]2[C@@H]3[C@@H](O)C[C@@H]4C[C@H](N=[N+]=[N-])CC[C@]4(C)[C@H]3CC[C@]12C [3α-N3-UDC, methyl 3α-azido-7β-hydroxy-5β-cholan-24-oate] | active | 25 ± 1 | > 100 | not active | active | 22 ± 1.5 |  |  | 
CC(CCN=[N+]=[N-])[C@H]1CCC2C3C(CC[C@@]21C)[C@@]1(C)CC[C@@H](O)CC1C[C@H]3O (stereo partly drawn) [23-N3-nor-CDC, 3α,7α-Dihydroxy-5β-23-azido-24-norcholane] |  | 21 ± 1.2 | 79 ± 3.1 |  |  | 25 ± 2 |  |  | 
CC(CCN=[N+]=[N-])[C@H]1CCC2C3C(CC[C@@]21C)[C@@]1(C)CC[C@@H](O)CC1C[C@@H]3O (stereo partly drawn) [23-N3-nor-UDC, 3α,7β-Dihydroxy-5β-23-azido-24-norcholane] |  | 15 ± 1 | 81 ± 2 |  |  | 22 ± 1.4 |  |  | 
COC(=O)CCC(C)C1CCC2C3C(O)CC4CC(n5cc(CCCCC#Cc6nc7c(N)ncnc7n6C6OC(CO)C(O)C6O)nn5)CCC4(C)C3CCC12C (stereo not drawn) [A-CDC] |  | 43.5 ± 1.3 | > 100 |  |  |  | ≤ 25 µM and 23.1 µM |  | 
CC(CCC(=O)NCCS(=O)(=O)O)C1CCC2C3C(O)CC4CC(n5cc(CCCCC#Cc6nc7c(N)ncnc7n6C6OC(CO)C(O)C6O)nn5)CCC4(C)C3CCC12C (stereo not drawn) [A-TUDCA] |  | > 50 | > 100 |  |  | > 50 |  |  | 
COC(=O)CCC(C)C1CCC2C3C(O)CC4CC(n5cc(CCCCC#Cc6nc7c(N)ncnc7n6C6OC(CO)C(O)C6O)nn5)CCC4(C)C3CCC12C (stereo not drawn) [A-UDC] |  |  |  |  |  |  | > 50 µM | > 50 µM | > 100
CC(CCn1cc(CCCCC#Cc2nc3c(N)ncnc3n2C2OC(CO)C(O)C2O)nn1)C1CCC2C3C(O)CC4CC(O)CCC4(C)C3CCC12C (stereo not drawn) [A-nor-CDC] |  |  | > 100 |  |  | 44.1 ± 2.5 |  | ≤ 25 µM and 23.6 µM | 
CC(CCn1cc(CCCCC#Cc2nc3c(N)ncnc3n2C2OC(CO)C(O)C2O)nn1)C1CCC2C3C(O)CC4CC(O)CCC4(C)C3CCC12C (stereo not drawn) [A-nor-UDC] |  |  |  |  |  |  | > 50 µM | > 50 µM | > 100
C#CCCCCC#Cc1nc2c(N)ncnc2n1[C@@H]1O[C@H](CO)[C@@H](O)[C@H]1O [ALK-A, 8-(1,7-Octadynyl)-adenosine] |  | > 50 | > 100 |  |  | > 50 |  |  | 
C#CCCCCC#Cc1nc2c(=O)[nH]c(N)nc2n1[C@@H]1O[C@H](CO)[C@@H](O)[C@H]1O [ALK-G, 8-(1,7-Octadynyl)-guanosine] |  | > 50 | > 100 |  |  | > 50 |  |  | 
C#CCCCCC#Cc1nc2c(=O)[nH]c(N)nc2n1[C@H]1C[C@H](O)[C@@H](CO)O1 [ALK-dG, 8-(1,7-Octadynyl)-2′-deoxyguanosine] |  | > 50 | > 100 |  |  | > 50 |  |  | 
N.N.[Cl][Pt][Cl] [CISPLATIN, cisplatin, reference compound] |  |  |  |  |  |  | 8.5 ± 1.2 µM | 5.4 ± 1 µM | 23.6 ± 3.5

Reference: PMC6151511, “Rational Design of Nucleoside–Bile Acid Conjugates Incorporating a Triazole Moiety for Anticancer Evaluation and SAR Exploration” (Molecules : A Journal of Synthetic Chemistry and Natural …, 2017)
